{"source": "patent US20170036969A1", "about": "“NITRIFICATION INHIBITORS” (BASF SE, priority 2014, published 2017)", "data": [{"test_system": "nitrification in soil sampled fresh from a field (e.g. Limburgerhof)", "test": "Soil nitrification inhibition test (48 well plate, ammonium sulfate + NaClO3, colour reaction read at 540 nm)", "settings": "dose of 10 ppm, room temperature, up to 72 hrs", "experimental": "Soil was sampled fresh from a field (e.g. Limburgerhof), dried and sieved through a 500 μm sieve. Approximately 200 mg of soil were placed into each well of a 48 well plate. Compounds, or DMSO alone, were added at a concentration of 10 ppm, dissolved in 1% DMSO. 6 μmol ammonium sulfate was added per well as well as 4.8 mg NaClO3.\nSubsequently, the samples were incubated at room temperature for up to 72 hrs. After the incubation period 64 mg KCl were added and mixed. 25 μl of the supernatant were placed into a fresh plate and 260 μl of a color reaction solution (from Merck Nr 1.11799.0100) were added.\nMeasurements were taken with a Tecan plate Reader at 540 nm wavelength.\nThe inhibition in % is calculated by the equation [(a−b)/a]×100, wherein a is the nitrification rate in the presence of the control (which is assumed to be 100%), and b is the nitrification rate in the presence of the tested compound.", "units": {"Rating (inhibition; best rating obtained for a compound)": "%"}, "values": [{"smiles": "C#CCOc1ccc(C(=O)N2CCOCC2)cc1", "Rating (inhibition; best rating obtained for a compound)": 57}, {"smiles": "C#CCOc1ccc(C#N)cc1", "Rating (inhibition; best rating obtained for a compound)": 53}, {"smiles": "C#CCOc1cc(NC(=S)N(N)CCO)c(F)cc1Cl", "Rating (inhibition; best rating obtained for a compound)": 56}, {"smiles": "C#CCOc1cc(N)c(F)cc1Cl", "Rating (inhibition; best rating obtained for a compound)": 62}, {"smiles": "C#CCOc1ccc(OCC#C)cc1", "Rating (inhibition; best rating obtained for a compound)": 66}, {"smiles": "C#CCOc1cccc(C(O)C#C)c1", "note": "(stereo not shown)", "Rating (inhibition; best rating obtained for a compound)": 61}, {"smiles": "C#CCOc1ccc(OC)cc1", "Rating (inhibition; best rating obtained for a compound)": 58}, {"smiles": "C#CCOc1cc(NC=O)c(F)cc1Cl", "Rating (inhibition; best rating obtained for a compound)": 48}, {"smiles": "C#CCOc1ccc(Cl)cc1", "Rating (inhibition; best rating obtained for a compound)": 59}, {"smiles": "C#CCOc1ccc(NC(=O)N(C)C)cc1Cl", "Rating (inhibition; best rating obtained for a compound)": 55}]}]}
